Here are results for one molecule from patent EP4772161A1, “SKIN COSMETIC COMPOSITION CONTAINING BOTRYOCOCCENE AS ACTIVE INGREDIENT” (Phycochemy Corporation, priority 2023, dated 2025).

What all share (type): cell-based, human
In data set [1] the test system is PGE2. Briefly: PGE2 production in culture supernatant of NHEK cells, with or without UVB irradiation (ELISA, per unit protein). The method, then:
(§1) Normal human epidermal keratinocytes (NHEKs) were cultured in HuMedia-KG2 (KG2) medium containing 10% fetal bovine serum, 1% antibiotic and 1% human epidermal keratinocyte growth supplement, in a 37°C, 5% CO2 incubator.
(§2) NHEK cells were seeded on a 96-well plate at a density of 2.5 × 10^4 cells/well in KG2 medium, and incubated for 24 hours. The supernatant was aspirated, the medium was exchanged with KB2 medium containing 0, 25, 50, 100 and 200 µM botryococcene, and culturing was continued for 24 hours, after which the cells were washed with PBS and the medium was exchanged with HBSS. The cells were then irradiated with UVB (280 to 320 nm, 20 mJ/cm^2) and cultured for 24 hours in fresh KB2 medium. The IL-1α and PGE2 expression levels in the culture supernatants were measured using an ELISA measuring kit. The cells were then dissolved in 50 µL of PBS containing 0.5% Triton^R X-100, the protein level was quantified, and the IL-1α and PGE2 production levels per unit protein were calculated.

The test system of data set [2] is NHEK cells. Briefly: Cytotoxicity with botryococcene treatment (Neutral Red uptake). The note with it: 24 hours. Here is the method: as §1
NHEK cells were seeded on a 96-well plate at a density of 2.5 × 10^4 cells/well in KG2 medium, and incubated for 24 hours. The supernatant was aspirated, the medium was exchanged with HuMedia-KB2 (KB2) medium containing 0, 12.5, 25, 50, 100, 200 and 400 µM botryococcene, and the mixture was incubated for 24 hours. After culturing, the cells were washed with PBS, the medium was exchanged with KB2 medium containing 0.003% Neutral Red, and culturing was carried out for 2 hours. The Neutral Red in the cells was extracted with 1 M HCl in 30% MeOH. The absorbance at 550 nm was measured with a microplate reader.

Data set [3] concerns NHEK cells. Briefly: Protection against cytotoxicity induced by H2O2 (Neutral Red uptake). The conditions noted are these: botryococcene 25-200 µM for 24 hours, then 300 µM H2O2 for 1 hour. The method, then:
as §1
NHEK cells were seeded on a 96-well plate at a density of 2.5 × 10^4 cells/well in KG2 medium, and incubated for 24 hours. The supernatant was aspirated, the medium was exchanged with KB2 medium containing 0, 25, 50, 100 and 200 µM botryococcene, and incubation was carried out for 24 hours. After culturing, the cells were washed for 1 hour with HBSS containing PBS and 300 µM H2O2, and the cells were then incubated for 24 hours in KB2 medium. After incubation, the cells were washed with PBS, the medium was exchanged with KB2 medium containing 0.003% Neutral Red, and culturing was carried out for 2 hours. After culturing, the cells were washed with PBS. The Neutral Red in the cells was extracted with 1 M HCl in 30% MeOH. The absorbance at 550 nm was measured with a microplate reader.

Data set [4] relates to MMP-1. Briefly: MMP-1 production by NHDF cells treated with supernatant (K-CM) of UVB-irradiated NHEK cells (ELISA, per unit protein). The method, then: as §1
(§3) Normal human skin fibroblasts (NHDFs) were cultured in DMEM with addition of 10% fetal bovine serum, 1% antibiotic and 1% human epidermal keratinocyte growth supplement, in a 37°C, 5% CO2 incubator.
(§4) NHEK cells were seeded on a 96-well plate at a density of 2.5 × 10^4 cells/well in KG2 medium, and incubated for 24 hours. The supernatant was aspirated, the medium was exchanged with KB2 medium containing 0, 25, 50, 100 and 200 µM botryococcene, and culturing was continued for 24 hours, after which the cells were washed with PBS and the medium was replaced with HBSS. The cells were then irradiated with UVB (280 to 320 nm, 20 mJ/cm^2) and cultured for 24 hours in fresh KB2 medium. After culturing, the supernatant (K-CM) was collected. NHDF cells were seeded on a 96-well plate at a density of 2.0 × 10^4 cells/well in DMEM medium, and incubated for 24 hours. […] The cells were then dissolved in 50 µL of PBS containing 0.5% Triton^R X-100, and the protein level was quantified with a BCA Protein Assay Kit (product of Thermo Fisher Scientific), calculating the type I collagen and MMP-1 production per unit protein.
In general terms: An ELISA detects its analyte on a solid surface through an enzyme-linked reagent.

The test system of data set [5] is type I collagen. Briefly: Type I collagen production by NHDF cells treated with supernatant (K-CM) of UVB-irradiated NHEK cells (ELISA, per unit protein). Here is the method:
as §1, §3, §4

Data set [6] has as its system IL-1α. Briefly: IL-1α production in culture supernatant of NHEK cells, with or without UVB irradiation (ELISA, per unit protein). Here is the method: as §1, §2
In data set [7] the test system is NHEK cells. Briefly: Fluorescent bead (FluoSpheres) phagocytosis induced by UVB irradiation. The note with it: UVB 20 mJ/cm^2. The method, then:
as §1
NHEK cells were seeded on a 96-well plate at a density of 2.5 × 10^4 cells/well in KG2 medium, and incubated for 24 hours. The supernatant was aspirated, the medium was exchanged with KB2 medium containing 0, 25, 50, 100 and 200 µM botryococcene, and culturing was continued for 24 hours, after which the cells were washed with PBS and the medium was replaced with HBSS. The cells were then irradiated with UVB (280 to 320 nm, 20 mJ/cm^2) and cultured for 24 hours in fresh KB2 medium. After replacing the medium with of KB2 medium containing FluoSpheres™ and allowing the cells to stand for 4 hours, they were dissolved with 50 µL of PBS containing 0.5% Triton^R X-100 and the fluorescence of the cell lysate was measured with a microplate reader. The fluorescence of the cell lysate was detected with a fluorescence reader at an excitation/luminous wavelength of 535 nm/590 nm. The cells were then dissolved in 50 µL of PBS containing 0.5% Triton^R X-100, the protein level was quantified, and the fluorescence intensity per unit protein was normalized.

The subject of data set [8] is intracellular ROS. Briefly: Intracellular reactive oxygen species removal (DCFH-DA fluorescence per unit protein). The conditions noted are these: NHEK cells, botryococcene 25-200 µM for 24 hours. The method, then: as §1
NHEK cells were seeded on a 96-well plate at a density of 2.5 × 10^4 cells/well in KG2 medium, and incubated for 24 hours. The supernatant was removed, the medium was exchanged with KB2 medium containing 0, 25, 50, 100 and 200 µM botryococcene, and incubation was carried out for 24 hours. After culturing, the cells were washed with PBS, the medium was exchanged with HBSS buffer containing 200 µM H2O2, and culturing was continued for 1 hour. The supernatant was removed and culturing was carried out for 30 minutes in HBSS buffer containing 20 µM DCFH-DA. The fluorescence intensity was measured with a microplate reader ([…]). The cells were then dissolved in 50 µL of PBS containing 0.5% Triton^R X-100, the protein level was quantified, and the fluorescence intensity per unit protein was normalized.

[9] abbreviates: botryococcene 200 µM, UVB 20 mJ/cm^2.
The mark [10] stands for this setting: botryococcene 25 to 100 µM, UVB 20 mJ/cm^2.
The mark [11] stands for this setting: NHDF cells with K-CM of UVB-irradiated NHEK cells pretreated with botryococcene 200 µM.
[12] abbreviates: NHDF cells with K-CM of UVB-irradiated NHEK cells pretreated with botryococcene 25 to 100 µM.

As to `C=C[C@@](C)(/C=C/[C@H](C)CC[C@H](C)C(=C)CC[C@H](C)C(=C)C)CC[C@H](C)C(=C)CC[C@H](C)C(=C)C` [botryococcene], the “Induction of PGE2 production” value in data set [1] (setting [9]) is “not inhibited”. The “PGE2 production induced by UVB irradiation” value in data set [1] (setting [10]) is “inhibited all of the IL-1α and PGE2 production induced by UVB irradiation in a concentration-dependent manner up to 100 µM”. In addition, the “amount of PGE2 produced” value in data set [1] (non-UVB-irradiated conditions, botryococcene up to 50 µM) was “reduced by botryococcene in a concentration-dependent manner”. The cell viability result in data set [2] (botryococcene 0 to 200 µM) is listed as “No change in cell viability was observed”; in data set [2] (botryococcene 400 µM) it was “a notable reduction was observed”. In addition, the “reduction in cell viability by H2O2 treatment” value in data set [3] was “restored by addition of botryococcene, in a concentration-dependent manner”. For the same molecule, the “inhibiting effect on acceleration of MMP-1 production” value in data set [4] (setting [11]) is recorded as “less prominent than with 50 µM or 100 µM”. Besides, the “acceleration of MMP-1 production” value in data set [4] (setting [12]) was “inhibited the reduction in collagen production and acceleration of MMP-1 production in a concentration-dependent manner up to 100 µM”. The “inhibiting effect on reduction in collagen production” value in data set [5] (setting [11]) was “less prominent than with 50 µM or 100 µM”. In addition, the “reduction in collagen production” value in data set [5] (setting [12]) is “inhibited the reduction in collagen production and acceleration of MMP-1 production in a concentration-dependent manner up to 100 µM”. Moreover, in data set [6] (setting [9]), the “Induction of IL-1α production” value is recorded as “not inhibited”. In addition, the “IL-1α production induced by UVB irradiation” value in data set [6] (setting [10]) is “inhibited all of the IL-1α and PGE2 production induced by UVB irradiation in a concentration-dependent manner up to 100 µM”. In data set [6] (non-UVB-irradiated conditions, botryococcene up to 100 µM), the “amount of IL-1α produced” value is listed as “reduced by botryococcene in a concentration-dependent manner up to 100 µM for IL-1α”. Besides, the “effect of inhibiting fluorescent bead phagocytosis” value in data set [7] (botryococcene 200 µM) is recorded as “less prominent than with 50 µM or 100 µM”. Further, the “fluorescent bead phagocytosis by UVB irradiation” value in data set [7] (botryococcene 25 to 100 µM) was “inhibited fluorescent bead phagocytosis by UVB irradiation in a concentration-dependent manner up to 100 µM”. Further, the “intracellular ROS concentration” value in data set [8] (then 200 µM H2O2 treatment for 1 hour) and in data set [8] (without H2O2 treatment) was “decrease in a concentration-dependent manner” throughout.
